Results as given in patent publication US20240254140A1, “COMPOUNDS AND THEIR USE IN THE TREATMENT OF BACTERIAL INFECTION” (Hoffmann-La Roche Inc., priority 2021, published 2024).
Converted amounts (≈) assume the structure as drawn.

System: Escherichia coli ATCC 25922
Test: Minimal Inhibitory Concentration (MIC) determination, broth microdilution
Assay type: cell-based
Details: ATCC25922; strain Escherichia coli ATCC 25922; broth microdilution per CLSI M07-A10; 18-24 hours at 35±2° C.; lowest concentration for complete growth inhibition
Protocol: Minimal Inhibitory Concentration (MIC) Determination:
The MIC of antibacterial compounds against multiple species and strains was determined using the broth microdilution method according to M07-A10 Clinical and Laboratory Standards Institute (CLSI) guidelines, using the appropriate broth medium. In short, the compound plates were prepared by dispensing 100 μL of each stock solution in the first well of a 96 well microtiter plate (MTP) at a concentration 100-fold higher than the final concentration desired in broth. Eleven serial 2-fold dilutions of the highest concentration were made in DMSO for new compounds and in water (or appropriate solution) for reference compounds [2]. 1 μL of each well was transferred in a new MTP, which served as the test plate by subsequent inoculation. This bacterial suspension was prepared from strains that were first sub-cultured on agar plates and incubated for 18-24 hours as appropriate. Following incubation, the inoculum was prepared from isolated colonies and adjusted to 0.5 McFarland turbidity standard (1 to 2×10^8 Colony Forming Units (CFU)/mL) in 0.9% saline. The bacterial suspension was then diluted 1:200 in appropriate sterile medium and within 15 minutes 100 μL/well were dispensed. Negative controls (lack of bacterial cells) and growth control wells (lack of compound) were included in all plates. MTPs were incubated for 18-24 hours at 35±2° C. in ambient air. The MIC value of each compound, expressed as μg/mL, was determined as the lowest concentration required for complete growth inhibition (no visible growth). • [1] CLSI (2015) Methods for dilution antimicrobial susceptibility tests for bacteria that grow aerobically; Approved Standard, Tenth Edition. CLSI Document M7-A10 (ISBN 1-56238-987-4). Wayne, PA: Clinical and Laboratory Standards Institute, 19087, USA. • [2] CLSI (2017) Performance Standards for Antimicrobial Susceptibility Testing; Twenty-Fifth Informational Supplement. CLSI Document M100-S27, CLSI, Wayne, Pennsylvania 19087, USA.
Table 1 provides the Minimal Inhibitory Concentrations (MIC) in micrograms per millilitre of the compounds of present invention obtained against the strain Escherichia coli ATCC 25922.

SMILES | MIC
CN1C[C@H](O)C[C@H]1C(=O)Nc1cc(F)c2c(c1)CC(CN1CCC3(CC1)CN(c1cnc4c(n1)NC(=O)CO4)C(=O)O3)C2 (stereo partly drawn) [Example 64, (2S,4R)—N-[7-Fluoro-2-[[2-oxo-3-(3-oxo-4H-pyrazino[2,3-b][1,4]oxazin-6-yl)-1-oxa-3,8-diazaspiro[4.5]decan-8-yl]methyl]indan-5-yl]-4-hydroxy-1-methyl-pyrrolidine-2-carboxamide] | 0.25 mg/L (≈ 0.42 µM)
CC(C)(O)C(=O)Nc1cc(C#N)c2c(c1)CC(CNCCC1CN(c3cnc4c(n3)NC(=O)CO4)C(=O)O1)C2 (stereo not drawn) [Example 20] | 0.5 mg/L (≈ 0.934 µM)
N[C@]1(C(=O)Nc2cc(F)c3c(c2)CC(CNCCC2CN(c4cnc5c(n4)NC(=O)CO5)C(=O)O2)C3)CCOC1.O=C(O)C(F)(F)F (stereo partly drawn) [Example 40, (3R)-3-amino-N-[7-fluoro-2-[[2-[2-oxo-3-(3-oxo-4H-pyrazino[2,3-b][1,4]oxazin-6-yl)oxazolidin-5-yl]ethylamino]methyl]indan-5-yl]tetrahydrofuran-3-carboxamide; 2,2,2-trifluoroacetic acid] | 0.25 mg/L
CO[C@@H]1C[C@@H](C(=O)Nc2cc(F)c3c(c2)CC(CNCCC2CN(c4cnc5c(n4)NC(=O)CO5)C(=O)O2)C3)N(C)C1 (stereo partly drawn) [Example 17, (2S,4R)-N-[7-fluoro-2-[[2-[2-oxo-3-(3-oxo-4H-pyrazino[2,3-b][1,4]oxazin-6-yl)oxazolidin-5-yl]ethylamino]methyl]indan-5-yl]-4-methoxy-1-methyl-pyrrolidine-2-carboxamide] | 1 mg/L (≈ 1.71 µM)
CN1CCC[C@@H]1C(=O)Nc1cc(C#N)c2c(c1)CC(CNCCC1CN(c3cnc4c(n3)NC(=O)CO4)C(=O)O1)C2 (stereo partly drawn) [Example 62, (2R)—N-[7-Cyano-2-[[2-[2-oxo-3-(3-oxo-4H-pyrazino[2,3-b][1,4]oxazin-6-yl)oxazolidin-5-yl]ethylamino]methyl]indan-5-yl]-1-methyl-pyrrolidine-2-carboxamide] | ≤ 0.06 mg/L
O=C1COc2ncc(N3CC4(CCN(CC5Cc6cc(NC(=O)[C@@H]7C[C@H](O)CN7)cc(F)c6C5)CC4)OC3=O)nc2N1 (stereo partly drawn) [Example 57, (2S,4S)—N-[7-Fluoro-2-[[2-oxo-3-(3-oxo-4H-pyrazino[2,3-b][1,4]oxazin-6-yl)-1-oxa-3,8-diazaspiro[4.5]decan-8-yl]methyl]indan-5-yl]-4-hydroxy-pyrrolidine-2-carboxamide] | ≤ 0.06 mg/L
O=C1COc2ncc(N3CC4(CCN(CC5Cc6cc(NC(=O)[C@H]7C[C@@H](O)CN7)cc(F)c6C5)CC4)OC3=O)nc2N1 (stereo partly drawn) [Example 55, (2R,4R)—N-[7-Fluoro-2-[[2-oxo-3-(3-oxo-4H-pyrazino[2,3-b][1,4]oxazin-6-yl)-1-oxa-3,8-diazaspiro[4.5]decan-8-yl]methyl]indan-5-yl]-4-hydroxy-pyrrolidine-2-carboxamide] | 0.125 mg/L (≈ 0.215 µM)
O=C1COc2ncc(N3CC4(CCN(CC5Cc6cc(NC(=O)[C@@H]7C[C@@H](O)CN7)cc(F)c6C5)CC4)OC3=O)nc2N1 (stereo partly drawn) [Example 42, (2S,4R)—N-[7-fluoro-2-[[2-oxo-3-(3-oxo-4H-pyrazino[2,3-b][1,4]oxazin-6-yl)-1-oxa-3,8-diazaspiro[4.5]decan-8-yl]methyl]indan-5-yl]-4-hydroxy-pyrrolidine-2-carboxamide] | 0.125 mg/L (≈ 0.215 µM)
C[C@@H](C(=O)Nc1cc(F)c2c(c1)CC(CN1CCC3(CC1)CN(c1cnc4c(n1)NC(=O)CO4)C(=O)O3)C2)N(C)C (stereo partly drawn) [Example 51, (2S)-2-(Dimethylamino)-N-[7-fluoro-2-[[2-oxo-3-(3-oxo-4H-pyrazino[2,3-b][1,4]oxazin-6-yl)-1-oxa-3,8-diazaspiro[4.5]decan-8-yl]methyl]indan-5-yl]propanamide] | 0.125 mg/L (≈ 0.22 µM)
CN(CCC1CN(c2cnc3c(n2)NC(=O)CO3)C(=O)O1)CC1Cc2cc(NC(=O)[C@@H]3C[C@@H](O)CN3)cc(F)c2C1 (stereo partly drawn) [Example 63, (2S,4R)—N-[7-Fluoro-2-[[methyl-[2-[2-oxo-3-(3-oxo-4H-pyrazino[2,3-b][1,4]oxazin-6-yl)oxazolidin-5-yl]ethyl]amino]methyl]indan-5-yl]-4-hydroxy-pyrrolidine-2-carboxamide] | 0.25 mg/L (≈ 0.439 µM)
Cl.N[C@@]1(C(=O)Nc2cc(F)c3c(c2)CC(CNCCC2CN(c4cnc5c(n4)NC(=O)CO5)C(=O)O2)C3)CCOC1 (stereo partly drawn) [Example 41, (3S)-3-amino-N-[7-fluoro-2-[[2-[2-oxo-3-(3-oxo-4H-pyrazino[2,3-b][1,4]oxazin-6-yl)oxazolidin-5-yl]ethylamino]methyl]indan-5-yl]tetrahydrofuran-3-carboxamide; hydrochloride] | 1 mg/L
CC(C)(N)C(=O)Nc1cc(F)c2c(c1)CC(CNCCC1CN(c3cnc4c(n3)NC(=O)CO4)C(=O)O1)C2 (stereo not drawn) [Example 43, 2-amino-N-[7-fluoro-2-[[2-[2-oxo-3-(3-oxo-4H-pyrazino[2,3-b][1,4]oxazin-6-yl)oxazolidin-5-yl]ethylamino]methyl]indan-5-yl]-2-methyl-propanamide] | 0.25 mg/L (≈ 0.474 µM)
C[C@@H](C(=O)Nc1cc(F)c2c(c1)CC(CNCCC1CN(c3cnc4c(n3)NC(=O)CO4)C(=O)O1)C2)N(C)C (stereo partly drawn) [Example 9] | 0.125 mg/L (≈ 0.231 µM)
O=C(CN1CCOCC1)Nc1cc(F)c2c(c1)CC(CNCCC1CN(c3cnc4c(n3)NC(=O)CO4)C(=O)O1)C2 (stereo not drawn) [Example 5, N-[7-fluoro-2-[[2-[2-oxo-3-(3-oxo-4H-pyrazino[2,3-b][1,4]oxazin-6-yl)oxazolidin-5-yl]ethylamino]methyl]indan-5-yl]-2-morpholino-acetamide] | 1 mg/L (≈ 1.76 µM)
COC1(CNCC2CN(c3cnc4c(n3)NC(=O)CO4)C(=O)O2)Cc2c(F)cc(NC(=O)[C@@H](C)N(C)C)c(F)c2C1 (stereo partly drawn) [Example 31] | 4 mg/L (≈ 6.95 µM)
CN1CCC[C@@H]1C(=O)Nc1cc(F)c2c(c1)CC(CNCCC1CN(c3cnc4c(n3)NC(=O)CO4)C(=O)O1)C2 (stereo partly drawn) [Example 14, (2R)-N-[7-fluoro-2-[[2-[2-oxo-3-(3-oxo-4H-pyrazino[2,3-b][1,4]oxazin-6-yl)oxazolidin-5-yl]ethylamino]methyl]indan-5-yl]-1-methyl-pyrrolidine-2-carboxamide] | 0.125 mg/L (≈ 0.226 µM)
COC[C@@H](N)C(=O)Nc1cc(F)c2c(c1)CC(CNCCC1CN(c3cnc4c(n3)NC(=O)CO4)C(=O)O1)C2 (stereo partly drawn) [Example 39, (2R)-2-amino-N-[7-fluoro-2-[[2-[2-oxo-3-(3-oxo-4H-pyrazino[2,3-b][1,4]oxazin-6-yl)oxazolidin-5-yl]ethylamino]methyl]indan-5-yl]-3-methoxy-propanamide] | 0.5 mg/L (≈ 0.92 µM)
C[C@H](C(=O)Nc1cc(C#N)c2c(c1)CC(CNCC[C@@H]1CN(c3cnc4c(n3)NC(=O)CO4)C(=O)O1)C2)N(C)C (stereo partly drawn) [Example 22, (2R)-N-[7-cyano-2-[[2-[(5R)-2-oxo-3-(3-oxo-4H-pyrazino[2,3-b][1,4]oxazin-6-yl)oxazolidin-5-yl]ethylamino]methyl]indan-5-yl]-2-(dimethylamino)propanamide] | 0.125 mg/L (≈ 0.228 µM)
CN(C)C(C)(C)C(=O)Nc1cc(F)c2c(c1)CC(CNCCC1CN(c3cnc4c(n3)NC(=O)CO4)C(=O)O1)C2 (stereo not drawn) [Example 3] | 0.25 mg/L (≈ 0.45 µM)
Cc1nc(NC(=O)[C@@H](C)N(C)C)cc2c1CC(CNCCC1CN(c3cnc4c(n3)NC(=O)CO4)C(=O)O1)C2 (stereo partly drawn) [Example 28, (2R)-2-(dimethylamino)-N-[1-methyl-6-[[2-[2-oxo-3-(3-oxo-4H-pyrazino[2,3-b][1,4]oxazin-6-yl)oxazolidin-5-yl]ethylamino]methyl]-6,7-dihydro-5H-cyclopenta[c]pyridin-3-yl]propanamide] | 0.5 mg/L (≈ 0.928 µM)
C[C@H](C(=O)Nc1cc(F)c2c(c1)CC(CN(C)CCC1CN(c3cnc4c(n3)NC(=O)CO4)C(=O)O1)C2)N(C)C (stereo partly drawn) [Example 58, (2R)-2-(Dimethylamino)-N-[7-fluoro-2-[[methyl-[2-[2-oxo-3-(3-oxo-4H-pyrazino[2,3-b][1,4]oxazin-6-yl)oxazolidin-5-yl]ethyl]amino]methyl]indan-5-yl]propanamide] | 0.25 mg/L (≈ 0.45 µM)
O=C1COc2ncc(N3CC4(CCN(CC5Cc6cc(NC(=O)[C@H]7C[C@H](O)CN7)cc(F)c6C5)CC4)OC3=O)nc2N1 (stereo partly drawn) [Example 56, (2R,4S)—N-[7-Fluoro-2-[[2-oxo-3-(3-oxo-4H-pyrazino[2,3-b][1,4]oxazin-6-yl)-1-oxa-3,8-diazaspiro[4.5]decan-8-yl]methyl]indan-5-yl]-4-hydroxy-pyrrolidine-2-carboxamide] | ≤ 0.06 mg/L
CO[C@H]1CN[C@H](C(=O)Nc2cc(F)c3c(c2)CC(CNCCC2CN(c4cnc5c(n4)NC(=O)CO5)C(=O)O2)C3)C1 (stereo partly drawn) [Example 44, (2S,4R)-N-[7-fluoro-2-[[2-[2-oxo-3-(3-oxo-4H-pyrazino[2,3-b][1,4]oxazin-6-yl)oxazolidin-5-yl]ethylamino]methyl]indan-5-yl]-4-methoxy-pyrrolidine-2-carboxamide] | 1 mg/L (≈ 1.76 µM)
CN(C)CC(=O)Nc1cc(F)c2c(c1)CC(CNCCC1CN(c3cnc4c(n3)NC(=O)CO4)C(=O)O1)C2 (stereo not drawn) [Example 1, 2-(Dimethylamino)-N-[7-fluoro-2-[[2-[2-oxo-3-(3-oxo-4H-pyrazino[2,3-b][1,4]oxazin-6-yl)oxazolidin-5-yl]ethylamino]methyl]indan-5-yl]acetamide] | 0.125 mg/L (≈ 0.237 µM)
